Assay [1] deals with A375 (melanoma). Kind of assay: MTT in vitro cytotoxic activity assay, A375. Type of assay: cell-based. The conditions noted are these: Homo sapiens, A-375; cells exposed for 96 hours; 50% inhibition of cell proliferation; read-out: Cytotoxicity activity IC50, A375 (melanoma). On the procedure: (§1) Compounds 1-16 were screened for their in vitro cytotoxic activity utilizing a 3-(4,5-dimethyl-thiazol-2-yl)-2,5-diphenyltetrazolium bromide (MTT) assay against selected cancer human cell lines consisting of PC3 (prostate), HCT116 (colon), A375 (melanoma), H1299 (lung), MIAPaCa-2 (pancreas), HL60 (leukemia), MCF7 (breast), MDA-MB-231 (breast) (T. Mosmann, J. Immunol. Meth., 1983, 65, 55-63). The cells were cultured at 37° C. in RMPI1640 medium supplemented with 10% fetal bovine serum, 50 IU/mL penicillin, and 50 μg/mL streptomycin in a 5% CO2 incubator. All cells were sub-cultured 3 times/week by trypsinisation. Viable cells were seeded and allowed to adhere for 12 h before a test drug was added in 96-well plates at an initial density of 1.0×10^5 cells/mL. Tumor cell lines were separately exposed to various concentrations of the tested compounds followed by incubation at a temperature of 37° C. during 96 hours inside a medium of fresh RMPI 1640. Cells were subsequently incubated at 37° C. using MTT at 0.5 mg/mL during 4 hours. After removal of supernatant, formazan crystals were dissolved in isopropanol and the optical density was measured at 570 nm. CX-4945 was used as a positive control.

Assay [2] deals with T1, recombinant human CK2 (RRββ-holoenzyme) (Homo sapiens, UniProt P68400).
T1 construct: purchased Millipore
Kind of assay: CK2 Kinase Assay (radiometric, [γ-33P] ATP). The format is biochemical. The note with it: final ATP concentration 15 μM; 10 min at 30° C.; read-out: protein kinase CK2 IC50. On the procedure:
CK2 Kinase Assay was conducted using the protocol as described in Pierre F. et al; J. Med. Chem. 2011, 54, 635-654. The tested compounds in aqueous solution were added at a volume of 10 μL to a reaction mixture comprising 10 μL of assay dilution buffer (ADB; 20 mM MOPS, pH 7.2, 25 mM β-glycerol phosphate, 5 mM EGTA, 1 mM sodium orthovanadate, and 1 mM dithiothreitol), 10 μL of substrate peptide (RRRDDDSDDD, dissolved in ADB at a concentration of 1 mM), 10 μL of recombinant human CK2 (RRββ-holoenzyme, 25 ng dissolved in ADB; Millipore). Reactions were initiated by the addition of 10 μL of ATP solution (90% 75 mMMgCl2, 75 μM ATP (final ATP concentration: 15 μM) dissolved in ADB; 10% [γ-33P] ATP (stock 1mCi/100 μL; 3000 Ci/mmol (Perkin-Elmer) and maintained for 10 min at 30° C. The reactions were quenched with 100 μL of 0.75% phosphoric acid and then transferred to and filtered through a phosphor cellulose filter plate (Millipore). After washing each well five times with 0.75% phosphoric acid, the plate was dried under vacuum for 5 min and, following the addition of 15 μL of scintillation fluid to each well, the residual radioactivity was measured using a Wallac luminescence counter. The IC50 values were derived from eight concentrations of test inhibitors.

Assay [3] has as its system PC3 (prostate). As to the kind of experiment: MTT in vitro cytotoxic activity assay, PC3. The format is cell-based. The note with it: Homo sapiens; cells exposed for 96 hours; 50% inhibition of cell proliferation; read-out: Cytotoxicity activity IC50, PC3 (prostate). As to the method:
as §1

Assay [4] deals with HL60 (leukemia). Kind of assay: MTT in vitro cytotoxic activity assay, HL60. The format is cell-based. The note with it: Homo sapiens, HL-60; cells exposed for 96 hours; 50% inhibition of cell proliferation; read-out: Cytotoxicity activity IC50, HL60 (leukemia). As to the method: as §1
For assay [5], the system named is MDA-MB-231 (breast). As to the kind of experiment: MTT in vitro cytotoxic activity assay, MDA-MB-231. Type of assay: cell-based. The conditions noted are these: Homo sapiens, cells exposed for 96 hours, 50% inhibition of cell proliferation, read-out: Cytotoxicity activity IC50, MDA-MB-231 (breast). As to the method:
as §1

Assay [6] relates to HCT116 (colon). Kind of assay: MTT in vitro cytotoxic activity assay, HCT116. Type of assay: cell-based. The note with it: Homo sapiens, HCT-116; cells exposed for 96 hours; 50% inhibition of cell proliferation; read-out: Cytotoxicity activity IC50, HCT116 (colon). On the procedure:
as §1

Assay [7] concerns MIAPaCa-2 (pancreas). Kind of assay: MTT in vitro cytotoxic activity assay, MIAPaCa-2. Type of assay: cell-based. The note with it: Homo sapiens, MIA PaCa-2; cells exposed for 96 hours; 50% inhibition of cell proliferation; read-out: Cytotoxicity activity IC50, MIAPaCa-2 (pancreas). As to the method: as §1
Assay [8] deals with MCF7 (breast). As to the kind of experiment: MTT in vitro cytotoxic activity assay, MCF7. The format is cell-based. The conditions noted are these: Homo sapiens, cells exposed for 96 hours, 50% inhibition of cell proliferation, read-out: Cytotoxicity activity IC50, MCF7 (breast). On the procedure: as §1
In assay [9] the test system is H1299 (lung). As to the kind of experiment: MTT in vitro cytotoxic activity assay, H1299. The note with it: Homo sapiens, NCI-H1299; cells exposed for 96 hours; 50% inhibition of cell proliferation; read-out: Cytotoxicity activity IC50, H1299 (lung). The format is cell-based. On the procedure: as §1

One may read the IC50 as the concentration needed to halve the response being measured.

T1 sequence (P68400 whole entry): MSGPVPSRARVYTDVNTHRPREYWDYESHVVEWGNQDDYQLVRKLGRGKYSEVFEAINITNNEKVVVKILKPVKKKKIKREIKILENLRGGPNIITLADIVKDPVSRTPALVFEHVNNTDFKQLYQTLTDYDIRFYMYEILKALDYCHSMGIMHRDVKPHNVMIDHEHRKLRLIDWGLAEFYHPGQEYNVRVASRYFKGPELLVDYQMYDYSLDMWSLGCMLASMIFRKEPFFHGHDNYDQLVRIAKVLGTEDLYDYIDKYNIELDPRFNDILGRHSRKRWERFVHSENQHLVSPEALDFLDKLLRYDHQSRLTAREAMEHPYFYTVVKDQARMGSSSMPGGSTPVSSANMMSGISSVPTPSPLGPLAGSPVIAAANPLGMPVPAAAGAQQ
T1 sequence (P67870 whole entry partner): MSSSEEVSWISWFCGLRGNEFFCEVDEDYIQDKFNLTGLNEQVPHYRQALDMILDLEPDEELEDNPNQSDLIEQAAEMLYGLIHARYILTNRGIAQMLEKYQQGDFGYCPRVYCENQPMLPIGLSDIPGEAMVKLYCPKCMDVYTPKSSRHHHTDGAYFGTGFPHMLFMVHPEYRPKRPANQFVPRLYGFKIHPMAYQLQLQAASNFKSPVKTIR

`Clc1cccc(Nc2c3ccncc3nc3c2nn2cnccc32)c1` [Compound 1, N-(3-chlorophenyl)pyrimido[1′,6′:1,5]pyrazolo[4,3-b][1,7]naphthyridin-10-amine]: the IC50 in [1] came out at 3200 nM; in [2], 92 nM; in assay [3], 1500 nM; in [4], 2700 nM; in assay [5], 5100 nM; in assay [6], 1300 nM. Further, the IC50 is 1200 nM in [7], 6500 nM in assay [8] and 2900 nM in assay [9].

(Values after US12173005B1, “Pyrimido[1′,6′:1,5]pyrazolo[4,3-b][1,7]naphthyridine compounds as CK2 inhibitors” (KING FAISAL UNIVERSITY, priority 2023, dated 2024).)
